Test results taken from patent publication US7670791B1, “Method for the suppression of visceral pain by regulating T-type calcium channel” (Korea Institute of Science and Technology, priority 2001, dated 2010).

Assays:
[1] = system: visceral pain caused by acetic acid in normal mice; experiment: Acetic acid-induced visceral pain (writhing test) after mibefradil injection; type: in vivo
Protocol: The present inventors injected 0.6% acetic acid into the peritoneal cavity of mice to examine the acetic acid-induced visceral pain response. The visceral pain is elicited secondarily to a delayed inflammatory response and induced abdominal stretching and writhing behavior (Gyires and Torma, Arch Int. Pharmacodyn. Ther., 1984, 267:131-140). Mice were placed individually in a transparent home cage (24×18×12 cm) and allowed to acclimate for at least 60 min. Then, 0.6% acetic acid ([…]) was injected into the peritoneum, after which the mice was returned to the testing chamber. The number of abdominal stretches or writhing motions was counted for 20 min. All mice were used only once in this experiment. […]
Particularly, in order to find out how mibefradil, the T-type calcium channel inhibitor functions, mibefreail was dissolved in 0.9% of NaCl at the concentration of 5 mg/ml. The degree of writhing was measured in a visceral pain inducing experiment 20 minutes after the injection of the said mibefradil at the concentration of 1, 10 and 30 mg/kg respectively in peritoneum of the mice.

[2] = inside the body, after peripheral (peritoneal) injection; cited from earlier work

In the case of `COCC(=O)O[C@]1(CCN(C)CCCc2nc3ccccc3[nH]2)CCc2cc(F)ccc2[C@@H]1C(C)C` [mibefradil, Mibefradil], the “degree of writhing / visceral pain caused by acetic acid” value ([1]; normal (wild-type) mice, mibefradil 1, 10 and 30 mg/kg in peritoneum, 20 minutes before test, 0.6% acetic acid i.p., FIG. 4) is given as “induced analgesia”, the “visceral pain caused by acetic acid” value ([1]; wild-type mice, mibefradil injected in the brain) is given as “enhanced” and the “passage through the brain barrier” value [2] is given as “cannot pass through the brain barrier”.
